Assays:
Trichomonas vaginalis = experiment: Growth inhibition of clinically isolated Trichomonas vaginalis in Trichomonas medium F (Neutral Red colour, inverted microscope); type: cell-based; conditions: for Color / Result of microscopic observation: 72 hours at 37° C.; for Result of microscopic observation: inverted microscope
Method: The effect on Trichomonas vaginalis was investigated for luliconazole of the compound represented by the general formula (1). That is, 5×10^6 cells of clinically isolated Trichomonas vaginalis were seeded in Trichomonas medium F (6.5 mL, contained in tube) produced by Fujiyakuhin Co., Ltd. containing Neutral Red as a marker, and the preculture was carried out for 72 hours (preculture). It was confirmed that Trichomonas grew, the acid was actively produced, and Neutral Red was changed to be yellow. After that, the preculture was added to Trichomonas medium F by every 100 μL in order to carry out the main culture, to which 0.5 mL of a test solution was added. In this situation, the number of protozoas in the solution of preculture was 1.5×10^5 cells/mL. Three series of test solutions were prepared, in which the luliconazole concentrations were 200 μM (final concentration: 35.2 μM), 100 μM (final concentration: 17.6 μM), and 50 μM (final concentration: 8.8 μM), as luliconazole dissolved in 10% methanol saline solution. 0.5 mL of vehicle was added as a control. As for the vehicle, 10% methanol saline solution (final concentration: 0 μM) was used. Stirring was sufficiently performed after the addition, followed by culturing at 37° C. for 72 hours. After the completion of the cultivation, the color was discriminated, and the state of protozoas was observed by using an inverted microscope. […] The same or equivalent investigation as that of Example 1 was performed while changing luliconazole to lanoconazole.

[1] = tested on: Chlamydia trachomatis (D/UW3/Cx); experiment: Anti-intracellular parasite action, Chlamydia inclusion bodies in HeLa 229 host cells (fluorescence staining); type: cell-based
Method: The anti-intracellular parasite action was investigated by using Chlamydia trachomatis (D/UW3/Cx). That is, Chlamydia trachomatis was cultured in the presence of ×2 dilution series of 8 to 64 μg/ml of luliconazole by using HeLa 229 cells as the host. MEM added with 8% thermally inactivated FBS, to which 1 μg/ml of cyclohexamide was added, was used as the medium, and the culture was performed for 72 hours in 5% carbon dioxide gas at 37° C. After the culture, inclusion bodies were subjected to the fluorescent staining to be apple green with Chlamydia FA reagent “Seiken” (produced by DENKA SEIKEN Co., Ltd.), and the observation was performed by using a fluorescence microscope.

[2] = final concentration 8.8 μM, Neutral Red marker
[3] = final concentration 17.6 μM, Neutral Red marker
[4] = final concentration 35.2 μM, Neutral Red marker (yellow = acid production by growing Trichomonas)

| SMILES | Color (Trichomonas vaginalis; [2]) | Result of microscopic observation (Trichomonas vaginalis; final concentration 8.8 μM) | Color (Trichomonas vaginalis; [3]) | Result of microscopic observation (Trichomonas vaginalis; final concentration 17.6 μM) | Color (Trichomonas vaginalis; [4]) | Result of microscopic observation (Trichomonas vaginalis; final concentration 35.2 μM) | growth of Trichomonas (Trichomonas vaginalis; at 8.8 μM) | observation result of Chlamydia inclusion bodies ([1]; treatment with 8 μg/mL, FIG. 1 panel (A)) | observation result of Chlamydia inclusion bodies ([1]; treatment with 16 μg/mL, FIG. 1 panel (B)) | observation result of Chlamydia inclusion bodies ([1]; treatment with 32 μg/mL, FIG. 1 panel (C)) |
| --- | --- | --- | --- | --- | --- | --- | --- | --- | --- | --- |
| N#C/C(=C1/SCC(c2ccccc2Cl)S1)n1ccnc1 (stereo not shown) [lanoconazole, 4-(2-chlorophenyl)-1,3-dithiolane-2-ylidene-1-imidazolyl acetonitrile] | yellow | large number of protozoas were observed | red | protozoas were observed slightly | red | no protozoa was observed | – | – | – | – |
| N#C/C(=C1/SC[C@@H](c2ccc(Cl)cc2Cl)S1)n1ccnc1 [luliconazole, (R)-(−)-(E)-[4-(2,4-dichlorophenyl)-1,3-dithiolane-2-ylidene]-1-imidazolyl acetonitrile] | yellow | protozoas were observed slightly | red | no protozoa was observed | red | no protozoa was observed | inhibits the growth | dot-shaped Chlamydia inclusion bodies stained apple green were observed | dot-shaped Chlamydia inclusion bodies stained apple green were observed | No inclusion body was found |

Source: patent publication US20150366845A1, “PHARMACEUTICAL COMPOSITION FOR DISEASES CAUSED BY PATHOGENIC MICROORGANISMS SUCH AS ASPERGILLUS” (POLA PHARMA INC., priority 2013, published 2015)
